Measured values as given in PMC4393083, “Antiviral Activity and Possible Mechanism of Action of Constituents Identified in Paeonia lactiflora Root toward Human Rhinoviruses” (PLoS ONE, 2015).
Read-outs that look alike come from different tables or passages of the source.

Experiments:
LDLR [1] = test: Western blot of LDLR in MRC5 cells; type: cell-based, human; conditions: MRC5, 2 days, regardless of HRV-2 infection, similar with HRV-4, 100 μg/mL PA, 20 μg/mL PGG
Protocol: Cell lysates from infected and noninfected MRC5 cultures 2 days after incubation with or without test compounds were obtained in RIPA buffer and 1% mammalian cell protease inhibitor cocktail according to the manufacturer’s instructions. Working dilutions of primary antibodies were dilulted 500, 2000, and 1000 times for anti-ICAM-1, anti-LDLR, and anti-actin antibodies, respectively. Working dilutions of secondary antibody was 1000, 1000, and 800 for anti-ICAM-1, anti-LDLR, and anti-actin, respectively. Ten micrograms of cell lysates from different treatments were mixed with an equal volume of 5× Laemmli sample buffer, boiled in 10 min, and resolved by electrophoresis in 11% sodium dodecyl sulfate-polyacrylamide gels (SDS-PAGE). […] Differences in protein expressions were quantified using a Molecular Imager Gel Doc XR system (Bio-Rad, Hercules, CA) and normalized to actin expression on the same membrane.
The expressions of ICAM-1 and LDLR were examined using real-time qRT-PCR and Western blot. Furthermore, concentrations of soluble ICAM-1 (sICAM-1) in cell-free culture supernatants 2 days after treatment were measured using a sICAM-1 ELISA Kit (Pierce Biotechnology, Rockford, IL) according to the manufacturer’s instructions. […] The concentrations of ICAM-1 in the test samples were determined from OD values using standard curve of each assay.

HRV-4 = test: Time-of-addition assay, HRV-4 in MRC5 cells; type: cell-based; conditions: Human rhinovirus sp.
Protocol: The time-of-addition effects of all compounds on HRV-4 were examined according to the method of Choi et al.. In brief, monolayers of MRC5 cells were seeded onto a 96-well culture plate as stated previously. After washing with PBS, 100 μg/mL PA, 20 μg/mL PGG, and 100 μg/mL ribavirin were separately added onto the cells at either before (–1 h), during (0 h), or after (1, 2, 3, 4, 6, 8, 12, 16, 20, and 24 h) HRV-4 infection at 37°C. After 2 days, MTT test and antiviral activity were carried out as stated previously.

TNF = TNF mRNA expression, qRT-PCR in MRC5; type: cell-based, human; conditions: MRC5, 2 days; 100 μg/mL PA, 20 μg/mL PGG; vs untreated cells
Protocol: (§1) To evaluate the level of gene expression, real-time qRT-PCR with SYBR Green dye was carried out. HRV-2 or HRV-4 infected and noninfected cultures of MRC5 monolayers grown in 25 cm^2 cell culture flasks (Corning, NY) were treated with 100 μg/mL PA or 20 μg/mL PGG. After incubation at 37°C and 5% CO2 for 2 days, total RNA was extracted from the culture cells using the RNeasy Plus Mini Kit (Qiagen, Hilden, Germany) according to the manufacturer’s instructions. Contaminated genomic DNA was removed using RQ1 RNase-free DNase (Promega, Madison, WI). Complementary DNA (cDNA) was synthesized using 1 μg total RNA through a reverse transcription reaction using the SuperScript First-Strand Synthesis Kit (Invitrogen, Carlsbad, CA). […] The PCR conditions were as follows: 50°C for 2 min, 95°C for 10 min, and then 50 cycles of 95°C for 15 s and either 60°C [β2-microglobulin (B2M), interleukin (IL)-6, IL-8, LDLR, ICAM-1, HRV-2, and HRV-4] or 58°C (B2M and IL-1β) or 55°C [B2M, Toll-like receptor 3 (TLR3), tumor necrosis factor (TNF), and interferon beta (IFNβ)] for 30 s. mRNA expression level of target gene was normalized to mRNA expression level for the housekeeping gene B2M and analyzed by the 2^–ΔΔCT method using StepOne Software v2.1 and DataAssist Software (Applied Biosystems). […]

ICAM-1 = ICAM-1 mRNA expression, qRT-PCR in MRC5; type: cell-based, human; conditions: MRC5, 2 days after HRV-2 or HRV-4 infection; 100 μg/mL PA, 20 μg/mL PGG
Protocol: as §1, with “WI).” for “WI). Complementary DNA (cDNA) was synthesized using 1 μg total RNA through a reverse transcription reaction using the SuperScript First-Strand Synthesis Kit (Invitrogen, Carlsbad, CA).”
(§2) The expressions of ICAM-1 and LDLR were examined using real-time qRT-PCR and Western blot. […] The concentrations of ICAM-1 in the test samples were determined from OD values using standard curve of each assay.

IL-6 = IL-6 mRNA expression, qRT-PCR in MRC5; type: cell-based, human; conditions: MRC5, 2 days after HRV-2 or HRV-4 infection; 100 μg/mL PA, 20 μg/mL PGG
Protocol: as §1

IL-1β = IL-1β mRNA expression, qRT-PCR in MRC5; type: cell-based, human; conditions: MRC5, 2 days after HRV-2 or HRV-4 infection; 100 μg/mL PA, 20 μg/mL PGG
Protocol: as §1

LDLR [2] = test: LDLR mRNA expression, qRT-PCR in MRC5; type: cell-based, human; conditions: MRC5, 2 days after HRV-2 or HRV-4 infection; 100 μg/mL PA, 20 μg/mL PGG
Protocol: as §1, with “WI).” for “WI). Complementary DNA (cDNA) was synthesized using 1 μg total RNA through a reverse transcription reaction using the SuperScript First-Strand Synthesis Kit (Invitrogen, Carlsbad, CA).”
as §2

[3] = HRV4, 0 h, 100 μg/mL PA, 20 μg/mL PGG, 100 μg/mL ribavirin, read-out: inhibition of HRV-4 infection, added at virus inoculation (0 h)
[4] = HRV4, read-out: inhibition of HRV-4 infection, added prior (–1 h) or post (1–24 h) infection, 100 μg/mL PA, 20 μg/mL PGG

Row | Compound | effect on LDLR protein expression (LDLR [1]) | inhibition at 20 µg/mL (HRV-4; [3]) [%] | inhibition at 20 µg/mL (HRV-4; [4]) [%] | effect on TNF mRNA expression (TNF) | effect on HRV-induced ICAM-1 mRNA expression (ICAM-1) | effect on HRV-induced IL-6 mRNA expression (IL-6) | effect on HRV-induced IL-1β mRNA expression (IL-1β) | effect on LDLR mRNA expression (LDLR [2]) | inhibition at 100 µg/mL (HRV-4; [3]) [%] | inhibition at 100 µg/mL (HRV-4; [4]) [%]
1 | O=C(OC[C@H]1O[C@@H](OC(=O)c2cc(O)c(O)c(O)c2)[C@H](OC(=O)c2cc(O)c(O)c(O)c2)[C@@H](OC(=O)c2cc(O)c(O)c(O)c2)[C@@H]1OC(=O)c1cc(O)c(O)c(O)c1)c1cc(O)c(O)c(O)c1 [PGG, 1,2,3,4,6-penta-O-galloyl-β-D-glucopyranose] | sharp decline | 54.5 | ≤ 40 | did not remarkably reduce | reduced | significantly reduced | disappeared or was significantly reduced | decreased |  | 
2 | COc1ccc(C(C)=O)c(O)c1 [PA, paeonol] | no effect |  |  | did not remarkably reduce | reduced | significantly reduced | disappeared or was significantly reduced | decreased | 57.2 | ≤ 40
